Test system: humane Neuroblastomazellen (SH-SY5Y, ATCC Nummer CRL-2266)
Assay: Serotonin release in SH-SY5Y neuroblastoma cells (Serotonin-ELISA)
Format: cell-based, human
Conditions: SH-SY5Y-Zellen, 10 µM test substance, 5 min stimulation, Krebs-Ringer-HEPES Puffer pH 6,2; relative to 10 µM Nonivamid
Protocol: Als Zellmodell für die Ausschüttung des Neurotransmitters Serotonin werden humane Neuroblastomazellen (SH-SY5Y, ATCC Nummer CRL-2266) verwendet. Die Kultivierung erfolgt bei 37 °C und 5 % CO2-Gehalt mit einer Mischung, die zu gleichen Teilen aus Eagle's Minimum Essential Medium (EMEM) und F12 Medium (jeweils mit 10 % FBS und 1 % Penicillin/Streptomycin) besteht. Zur Bestimmung der Serotoninfreisetzung werden die Zellen mit Trypsin geerntet und nach einer Vitalitätsprüfung durch Trypanblaufärbung in definierter Zellzahl in 24-well Platten (Corning cell culture treated) ausgesät.
Nach 5-minütiger Stimulierung von 90.000 humanen Neuroblastomazellen (SH SY5Y) mit 60 µl Krebs-Ringer-HEPES Puffer, 0,1 % Ascorbinsäure, pH 6,2, mit oder ohne Zusatz von 10 µM einer der Verbindungen 1-4, , bzw. 10 µM Nonivamid als Positivkontrolle wird der Serotoningehalt mit Hilfe eines enzymbasierten Nachweisverfahrens (Serotonin-ELISA sensitiv, DLD Diagnostica, Hamburg, Deutschland) ermittelt. Tabelle 1. Serotonin-Freisetzung in SH-SY5Y-Zellen nach Stimulierung mit je 10 µM von Verbindungen nach Formel I.

| SMILES | Serotoninfreisetzung [% der Positivkontrolle] |
| --- | --- |
| CCCCCCCCC(=O)NCc1ccc(O)c(OC)c1 [Nonivamid, N-Nonanoylvanillylamin, reference compound] | 100 |
| OCC=Cc1ccccc1 [Verbindung 1, Cinnamylalkohol] | 129.29 |
| CCC(=O)OCC=Cc1ccccc1 [Verbindung 4, Cinnamylpropionat] | 115.57 |
| CC(C)C(=O)OCC=Cc1ccccc1 [Verbindung 6, Cinnamylisobutyrat] | 120.69 |
| CC(C)CC(=O)OC/C=C/c1ccccc1 [Verbindung 7, Cinnamylisovalerianat] | 118.47 |
| O=C(C=Cc1ccccc1)OCC=Cc1ccccc1 [Verbindung 11, Cinnamylcinnamat] | 120.83 |

From patent EP3474833B1, “CINNAMYL ALCOHOL DERIVATIVE FOR USE IN REDUCING APPETITE AND FOR GENERATING THE FEELING OF BEING FULL” (Symrise AG, priority 2016, dated 2017)
